Where two headings read alike, the source gives them in different places.
Tests used:
E. coli CSH(RE45) = test: microbe, parasite or virus in culture; assay type: cell-based; details: 10^6 CFU/ml; for MIC: Escherichia coli, 16 h, read-out: Minimum Inhibitory Concentration (MIC), *E. coli CSH(RE45), lactamase-producing strain
In short: (§1)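 Each organism, pre-grown overnight in Mueller Hinton broth, is inoculated at 10^6 CFU/ml onto Mueller Hinton agar series with increasing compound concentration; growth inhibition is scored after 16 h, 37° C., giving MIC (μg/ml).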

E. coli CSH2 (RK1) = test: microbe, parasite or virus in culture; assay type: cell-based; details: 10^6 CFU/ml; for MIC: Escherichia coli, 16 h, read-out: Minimum Inhibitory Concentration (MIC), *E. coli CSH2 (RK1), lactamase-producing strain
In short: as §1

E. cloacae 963 = test: in vitro antibacterial activity, agar plate dilution method (MIC); assay type: cell-based; details: 10^6 CFU/ml
In short: as §1

E. cloacae Nek 39 = test: as above; assay type: cell-based; details: 10^6 CFU/ml; for MIC: Enterobacter cloacae, NEK39, 16 h
In short: as §1

E. coli GN5482 = test: as above; assay type: cell-based; details: Escherichia coli, GN5482, 16 h
In short: as §1

E. coli NIHJ JC2 = test: as above; assay type: cell-based; details: Escherichia coli, NIHJJC2, 16 h, read-out: Minimum Inhibitory Concentration (MIC), E. coli NIHJ JC2, 10^6 CFU/ml, 37° C.
In short: as §1

K. oxytoca GN10650 = test: as above; assay type: cell-based; details: 10^6 CFU/ml; for MIC: Klebsiella oxytoca, GN10650, 16 h, read-out: Minimum Inhibitory Concentration (MIC), *K. oxytoca GN10650, lactamase-producing strain
In short: as §1

K. pneumoniae No. 42 = test: as above; assay type: cell-based; details: 10^6 CFU/ml; for MIC: Klebsiella pneumoniae, NO.42, 16 h, read-out: Minimum Inhibitory Concentration (MIC), *K. pneumoniae No. 42, lactamase-producing strain
In short: as §1

K. pneumoniae PCI-602 = test: as above; assay type: cell-based; details: Klebsiella pneumoniae, PCI602, 16 h, 10^6 CFU/ml
In short: as §1

M. morganii GN5407 = test: as above; assay type: cell-based; details: 10^6 CFU/ml; for MIC: Morganella morganii, GN5407, 16 h, read-out: Minimum Inhibitory Concentration (MIC), *M. morganii GN5407, lactamase-producing strain
In short: as §1

P. vulgaris HX-19 = test: as above; assay type: cell-based; details: Proteus vulgaris, HX19, 16 h, read-out: Minimum Inhibitory Concentration (MIC)
In short: as §1

P. vulgaris No. 33 = test: as above; assay type: cell-based; details: 10^6 CFU/ml; for MIC: Proteus vulgaris
In short: as §1

S. aureus 209P NIHJ-JC1 = test: as above; assay type: cell-based; details: Staphylococcus aureus, 16 h
In short: as §1

S. marcescens IAM 1184 = test: as above; assay type: cell-based; details: for MIC: Serratia marcescens, IAM1184, 16 h, read-out: Minimum Inhibitory Concentration (MIC)
In short: as §1

S. marcescens No. 16-2 = test: as above; assay type: cell-based; details: Serratia marcescens, NO.162, 16 h
In short: as §1

Ps. aeruginosa AK 109 = test: as above; assay type: cell-based, Pseudomonas aeruginosa; details: Pseudomonas aeruginosa, AK109, 16 h, read-out: Minimum Inhibitory Concentration (MIC)
In short: as §1

Ps. aeruginosa AKR17 = test: as above; assay type: cell-based, Pseudomonas aeruginosa; details: Pseudomonas aeruginosa, 10^6 CFU/ml
In short: as §1

Ps. aeruginosa IF03445 = test: as above; assay type: cell-based, Pseudomonas aeruginosa; details: 10^6 CFU/ml; for MIC: Pseudomonas aeruginosa
In short: as §1

Ps. cepacia 23 = test: as above; assay type: cell-based, Pseudomonas cepacia; details: read-out: Minimum Inhibitory Concentration (MIC)
In short: as §1

A. calcoaceticus No. 4 = test: as above; assay type: cell-based, Acinetobacter calcoaceticus; details: Acinetobacter calcoaceticus, NO.4, 16 h, 10^6 CFU/ml
In short: as §1

[1] = Enterobacter cloacae, 963, 16 h, read-out: Minimum Inhibitory Concentration (MIC), E. cloacae 963
[2] = read-out: Minimum Inhibitory Concentration (MIC)
[3] = read-out: Minimum Inhibitory Concentration (MIC), K. pneumoniae PCI-602
[4] = read-out: Minimum Inhibitory Concentration (MIC), S. aureus 209P NIHJ-JC1, 10^6 CFU/ml, 37° C., 16 hours
[5] = S. marcescens IAM 1184, 10^6 CFU/ml
[6] = Ps. aeruginosa AK 109, 10^6 CFU/ml
[7] = 16 h, Ps. aeruginosa AKR17, read-out: Minimum Inhibitory Concentration (MIC)
[8] = Burkholderia cepacia, 16 h, Ps. cepacia 23, 10^6 CFU/ml
[9] = A. calcoaceticus No. 4, read-out: Minimum Inhibitory Concentration (MIC)
[10] = read-out: Minimum Inhibitory Concentration (MIC), *E. cloacae Nek 39, lactamase-producing strain
[11] = NO.33, 16 h, read-out: Minimum Inhibitory Concentration (MIC), *P. vulgaris No. 33, lactamase-producing strain
[12] = read-out: Minimum Inhibitory Concentration (MIC), *S. marcescens No. 16-2, lactamase-producing strain, 10^6 CFU/ml
[13] = IF03445, 16 h, read-out: Minimum Inhibitory Concentration (MIC), Ps. aeruginosa IF03445
[14] = *E. cloacae Nek 39, lactamase-producing strain, read-out: Minimum Inhibitory Concentration (MIC)
[15] = read-out: Minimum Inhibitory Concentration (MIC), *E. coli GN5482, lactamase-producing strain, 10^6 CFU/ml
[16] = *S. marcescens No. 16-2, lactamase-producing strain, 10^6 CFU/ml, read-out: Minimum Inhibitory Concentration (MIC)
[17] = 16 h, Ps. aeruginosa IF03445, read-out: Minimum Inhibitory Concentration (MIC)

| Compound | MIC (E. cloacae 963; [1]) | MIC (E. coli GN5482; [2]) | MIC (E. coli NIHJ JC2) | MIC (K. pneumoniae PCI-602; [3]) | MIC (S. aureus 209P NIHJ-JC1; [4]) | MIC (Ps. aeruginosa AK 109; [6]) | MIC (Ps. aeruginosa AKR17; [7]) | MIC (Ps. cepacia 23; [8]) | MIC (A. calcoaceticus No. 4; [9]) | MIC (E. coli CSH(RE45)) | MIC (E. coli CSH2 (RK1)) | MIC (E. cloacae Nek 39; [10]) | MIC (K. oxytoca GN10650) | MIC (K. pneumoniae No. 42) | MIC (M. morganii GN5407) | MIC (P. vulgaris HX-19; P. vulgaris HX-19, 10^6 CFU/ml) | MIC (P. vulgaris No. 33; [11]) | MIC (S. aureus 209P NIHJ-JC1; [2]) | MIC (S. marcescens IAM 1184; [5]) | MIC (S. marcescens No. 16-2; [12]) | further results |
| --- | --- | --- | --- | --- | --- | --- | --- | --- | --- | --- | --- | --- | --- | --- | --- | --- | --- | --- | --- | --- | --- |
| Nc1nc(C(=NOC(C(=O)O)c2ccc(O)c(O)c2)C(=O)NC2C(=O)N3C(C(=O)O)=C(CSc4nnc(-c5ccc(O)c(O)c5)s4)CSC23)cs1 (single isomer, unassigned) [Example 38 DA, disodium 7β-{2-(2-aminothiazol-4-yl)-2-(α-carboxylate-3,4-dihydroxybenzyloxyimino)acetamido]-3-[5-(3,4-dihydroxyphenyl)-1,3,4-thiadiazol-2-yl]thiomethyl-3-cephem-4-carboxylate] | 0.05 µg/mL | 0.2 µg/mL | 0.2 µg/mL | < 0.006 µg/mL | 0.78 µg/mL | 0.2 µg/mL | 0.1 µg/mL | < 0.006 µg/mL | 0.025 µg/mL | – | – | – | – | – | – | – | – | – | – | – | Minimum Inhibitory Concentration (MIC) (E. coli CSH(RE45); *E. coli CSH(RE45), lactamase-producing strain): < 0.006 µg/mL; Minimum Inhibitory Concentration (MIC) (E. coli CSH2 (RK1); *E. coli CSH2 (RK1), lactamase-producing strain): < 0.006 µg/mL; Minimum Inhibitory Concentration (MIC) (E. cloacae Nek 39; *E. cloacae Nek 39, lactamase-producing strain): 0.1 µg/mL; Minimum Inhibitory Concentration (MIC) (K. oxytoca GN10650; *K. oxytoca GN10650, lactamase-producing strain): 0.025 µg/mL; Minimum Inhibitory Concentration (MIC) (K. pneumoniae No. 42; *K. pneumoniae No. 42, lactamase-producing strain): 0.0125 µg/mL; Minimum Inhibitory Concentration (MIC) (M. morganii GN5407; *M. morganii GN5407, lactamase-producing strain): 0.05 µg/mL; MIC (P. vulgaris HX-19): 0.0125 µg/mL; Minimum Inhibitory Concentration (MIC) (P. vulgaris No. 33; *P. vulgaris No. 33, lactamase-producing strain): 0.025 µg/mL; Minimum Inhibitory Concentration (MIC) (S. marcescens IAM 1184; [5]): 0.025 µg/mL; MIC (S. marcescens No. 16-2; [2]): 0.2 µg/mL; Minimum Inhibitory Concentration (MIC) (Ps. aeruginosa IF03445; Ps. aeruginosa IF03445): 0.39 µg/mL |
| CO/N=C(\C(=O)N[C@@H]1C(=O)N2C(C(=O)O)=C(CSc3nnc(-c4ccc(OC(C)=O)c(OC(C)=O)c4)o3)CS[C@H]12)c1csc(N)n1 [Ex. 4, sodium 3-[5-(3,4-diacetoxyphenyl)-1,3,4-oxadiazol-2-yl]thiomethyl-7β-[2-(2-thiazol-4-yl)-2-methoxyiminoacetamido]-3-cephem-4carboxylate] | – | 0.39 µg/mL | 0.05 µg/mL | < 0.006 µg/mL | – | – | > 100 µg/mL | 0.1 µg/mL | – | 0.78 µg/mL | < 0.006 µg/mL | 0.05 µg/mL | 0.39 µg/mL | 0.025 µg/mL | 0.0125 µg/mL | < 0.006 µg/mL | 0.0125 µg/mL | 3.12 µg/mL | < 0.006 µg/mL | 1.56 µg/mL | MIC (E. cloacae 963; Enterobacter cloacae, 16 h, E. cloacae 963, read-out: Minimum Inhibitory Concentration (MIC)): < 0.006 µg/mL; MIC (Ps. aeruginosa AK 109): 0.39 µg/mL; MIC (Ps. aeruginosa IF03445; [13]): 0.78 µg/mL; MIC (A. calcoaceticus No. 4; read-out: Minimum Inhibitory Concentration (MIC), A. calcoaceticus No. 4): 0.1 µg/mL |
| CC(=O)Oc1ccc(-c2nc(SCC3=C(C(=O)O)N4C(=O)[C@@H](NC(=O)/C(=N\OC(C)(C)C(=O)O)c5csc(N)n5)[C@H]4SC3)sc2CC(=O)O)cc1 [compound 20, trisodium 3-[4-(4-acetoxyphenyl)-5-carboxylatemethylthiazol-2-yl]thiomethyl-7β-[2-(2-aminothiazol-4-yl)-2-(1-carboxylate-1-methylethoxyimino)acetamido]-3-cephem-4-carboxylate, reference compound] | 6.25 µg/mL | – | 3.12 µg/mL | 1.56 µg/mL | – | 25 µg/mL | > 100 µg/mL | – | > 100 µg/mL | 3.12 µg/mL | 3.12 µg/mL | – | 3.12 µg/mL | 3.12 µg/mL | 3.12 µg/mL | < 0.006 µg/mL | – | – | – | – | MIC (E. cloacae Nek 39; [14]): 25 µg/mL; MIC (E. coli GN5482; [15]): 6.25 µg/mL; MIC (P. vulgaris No. 33; 16 h, *P. vulgaris No. 33, lactamase-producing strain, read-out: Minimum Inhibitory Concentration (MIC)): 0.1 µg/mL; MIC (S. aureus 209P NIHJ-JC1; S. aureus 209P NIHJ-JC1, 10^6 CFU/ml, 37° C., 16 hours, read-out: Minimum Inhibitory Concentration (MIC)): 50 µg/mL; MIC (S. marcescens IAM 1184): 1.56 µg/mL; MIC (S. marcescens No. 16-2; [16]): 100 µg/mL; MIC (Ps. aeruginosa IF03445; [17]): 25 µg/mL; MIC (Ps. cepacia 23; Burkholderia cepacia, 23, 16 h): 6.25 µg/mL |
| Nc1nc(/C(=N/OC(C(=O)O)c2ccccc2)C(=O)N[C@@H]2C(=O)N3C(C(=O)O)=C(CSc4nnc(-c5ccc(O)c(O)c5)o4)CS[C@H]23)cs1 (stereo partly drawn) [Ex. 15, disodium 7δ-[2-(2-aminothiazol-4-yl)-2-(α-carboxylatebenzyloxyimino)acetamido]-3-[5-(3,4-dihydroxyphenyl)-1,3,4-oxadiazol-2-yl]thiomethyl-3-cephem-4-carboxylate] | 0.025 µg/mL | – | 0.1 µg/mL | < 0.006 µg/mL | – | – | – | < 0.006 µg/mL | 0.05 µg/mL | 3.12 µg/mL | < 0.006 µg/mL | 0.05 µg/mL | 0.0125 µg/mL | 0.05 µg/mL | 0.05 µg/mL | < 0.006 µg/mL | 0.0125 µg/mL | 12.5 µg/mL | 0.025 µg/mL | 0.78 µg/mL | MIC (E. coli GN5482; [15]): 1.56 µg/mL; MIC (Ps. aeruginosa AK 109): 0.39 µg/mL; MIC (Ps. aeruginosa AKR17; AKR17, 16 h, read-out: Minimum Inhibitory Concentration (MIC), Ps. aeruginosa AKR17): 0.78 µg/mL; MIC (Ps. aeruginosa IF03445; [13]): 0.78 µg/mL |
| CC(C)(O/N=C(\C(=O)N[C@@H]1C(=O)N2C(C(=O)O)=C(CSc3ncc(-c4ccc(O)cc4)o3)CS[C@H]12)c1csc(N)n1)C(=O)O [compound 24, disodium 7β-[2-(2-aminothiazol-4-yl)-2-(1-carboxylate-1-methylethoxyimino)acetamido]-3-[5-(4-hydroxyphenyl)oxazol-2-yl]thiomethyl-3-cephem-4-carboxylate, reference compound] | 12.5 µg/mL | 3.12 µg/mL | 12.5 µg/mL | – | 6.25 µg/mL | 25 µg/mL | > 100 µg/mL | – | > 100 µg/mL | 3.12 µg/mL | 3.12 µg/mL | – | 6.25 µg/mL | 12.5 µg/mL | 6.25 µg/mL | < 0.006 µg/mL | 0.39 µg/mL | – | – | – | MIC (E. cloacae Nek 39; [14]): 25 µg/mL; MIC (K. pneumoniae PCI-602; K. pneumoniae PCI-602, read-out: Minimum Inhibitory Concentration (MIC)): 0.2 µg/mL; MIC (S. marcescens IAM 1184): 3.12 µg/mL; MIC (S. marcescens No. 16-2; [16]): 25 µg/mL; MIC (Ps. aeruginosa IF03445; [17]): 25 µg/mL; MIC (Ps. cepacia 23; Burkholderia cepacia, 23, 16 h): 6.25 µg/mL |
